Test results published in the supplement of paper PMC10307832.

Experiments:
Experiment in all cases: relative viability (nuclei count vs DMSO), 5 days (fraction); higher = more cells survive
[1] = compound: C1CNCCC1C2=CC(=NN2)C3=CC=NC=C3 + Cc1cc(Nc2cc(N3CCN(C)CC3)nc(Sc3ccc(NC(=O)C4CC4)cc3)n2)n[nH]1 [Tozasertib] (partner 0.1 µM)
Procedure, shortened: (§1)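 Lung cancer cell lines were seeded in 1536-well plates and dosed by pin tool the next day, with either a single drug or a fixed anchor-drug dose combined with five library-drug doses (not always all listed) spaced in √10 steps. Five days later, one step fixed the cells and stained their nuclei (final 0.05% Triton X-100, 1% formaldehyde, 1 ug/ml Hoechst), and nuclei were counted on 4× images. Relative viability is the nuclei count in treated wells divided by the count in vehicle wells, and each value is the median of duplicate plates.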

[2] = compound: C[C@@H](N)c1ccc(C(=O)Nc2ccnc3[nH]ccc23)cc1 + Nc1nc2[nH]cc(CCc3ccc(C(=O)N[C@@H](CCC(=O)O)C(=O)O)cc3)c2c(=O)[nH]1 [Pemetrexed] (partner 0.2 µM)
Procedure, shortened: as §1

Tanzisertib + Dasatinib = compound: O[C@H]1CC[C@H](Nc2ncc3nc(Nc4c(F)cc(F)cc4F)n([C@H]4CCOC4)c3n2)CC1 [Tanzisertib] + Cc1nc(Nc2ncc(C(=O)Nc3c(C)cccc3Cl)s2)cc(N2CCN(CCO)CC2)n1 [Dasatinib] (partner 0.075 µM)
Procedure, shortened: as §1

[3] = compound: C[C@@H](N)c1ccc(C(=O)Nc2ccnc3[nH]ccc23)cc1 + CC(=O)Nc1cccc(-n2c(=O)n(C3CC3)c(=O)c3c(Nc4ccc(I)cc4F)n(C)c(=O)c(C)c32)c1 [Trametinib] (partner 0.02 µM)
Procedure, shortened: as §1

Cell Line	relative viability ([1]; first compound 0.08 µM)	relative viability ([1]; first compound 0.8 µM)	relative viability ([1]; first compound 2.53 µM)	relative viability ([1]; first compound 8 µM)	relative viability ([2]; first compound 0.04 µM)	relative viability ([2]; first compound 0.1265 µM)	relative viability ([2]; first compound 0.4 µM)	relative viability ([2]; first compound 1.265 µM)	relative viability ([2]; first compound 4 µM)	relative viability (Tanzisertib + Dasatinib; first compound 0.08 µM)	relative viability (Tanzisertib + Dasatinib; first compound 0.253 µM)	relative viability (Tanzisertib + Dasatinib; first compound 0.8 µM)	relative viability (Tanzisertib + Dasatinib; first compound 2.53 µM)	relative viability (Tanzisertib + Dasatinib; first compound 8 µM)	relative viability ([3]; first compound 0.04 µM)	relative viability ([3]; first compound 0.1265 µM)	relative viability ([3]; first compound 0.4 µM)	relative viability ([3]; first compound 1.265 µM)	relative viability ([3]; first compound 4 µM)
201T	0.944	0.944	0.893	0.951	0.316	0.297	0.382	0.29	0.314	0.546	0.608	0.537	0.496	0.582	0.701	0.712	0.733	0.758	0.815
A-427	0.203	0.214	0.19	0.22	0.827	0.985	0.815	0.671	0.726	0.778	0.684	0.65	0.646	0.808	0.88	0.876	0.953	0.73	0.662
ABC-1	0.145	0.17	0.201	0.176	–	–	–	–	–	0.586	0.604	0.523	0.614	0.597	–	–	–	–	–
BEN	0.575	0.514	0.45	0.513	0.556	0.711	0.701	0.877	0.634	0.306	0.374	0.442	0.355	0.32	1.01	0.87	0.984	1.37	0.85
CAL-12T	0.334	0.34	0.313	0.342	1.23	1.39	1.43	1.49	1.27	0.453	0.343	0.375	0.314	0.319	0.34	0.408	0.38	0.447	0.409
COR-L23	0.222	0.201	0.229	0.172	0.204	0.195	0.188	0.201	0.178	0.527	0.473	0.491	0.494	0.396	0.414	0.591	0.604	0.262	0.389
COR-L 105	0.348	0.311	0.348	0.349	1	1.12	0.94	0.98	0.619	0.397	0.356	0.297	0.354	0.255	0.441	0.518	0.449	0.417	0.458
ChaGo-K-1	0.237	0.223	0.232	0.216	0.259	0.277	0.257	0.234	0.241	0.647	0.606	0.605	0.533	0.59	0.888	0.863	0.823	0.894	0.789
EKVX	0.396	0.303	0.491	0.401	0.365	0.383	0.566	0.354	0.379	0.467	0.565	0.55	0.503	0.411	0.482	0.446	0.396	0.556	0.22
